Key:
[1] = tested on: Smn protein in SMA patient fibroblast cells (GM03813); assay: Smn protein assay in cultured cells (SMN HTRF); format: cell-based, human; details: SMA patient fibroblast cells, 48 hours; for EC1.5x for Smn protein expression: 7-point concentration curve, SMN HTRF, concentration producing 1.5 times Smn protein vs DMSO vehicle control; for maximum fold (Fold) increase of Smn protein: 7-point concentration data, fold relative to vehicle control
In short: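 Smn protein quantified by HTRF with anti-SMN d2/kryptate pair, 665/620 nm ratio blank-corrected, in RIPA lysates of GM03813 fibroblasts after 48 h compound exposure (7 concentrations, 3.16-fold steps, triplicates). Values: concentration producing 1.5× vehicle Smn level, and maximal fold increase.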

[2] = tested on: SMN2 minigene mRNA (SMN2-A minigene) in HEK293H cells; assay: SMN2 minigene mRNA splicing RT-qPCR assay in cultured cells; format: cell-based, human; details: Homo sapiens, HEK293-H; concentration increasing full length SMN2 mRNA 1.5-fold relative to vehicle-treated cells; HEK293H cells with SMN2-A minigene, 24 hours, 7-point concentration data; read-out: EC1.5x for production of full length SMN2 mRNA
In short: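 EC1.5× = concentration raising full-length SMN2 minigene mRNA 1.5-fold over vehicle, from 7-point curves in duplicate. Stably transfected HEK293H cells exposed 24 h at 37 °C; lysates assayed by multiplex RT-qPCR, minigene FL signal normalized to GAPDH via modified ΔΔCt.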

| SMILES | EC1.5x for Smn protein expression [1] | maximum fold (Fold) increase of Smn protein [1] | EC (1.5-fold increase) [2] [µM] |
| --- | --- | --- | --- |
| CN1CCCN(c2ccc3nc(-c4ccc5c(cnn5C)c4)cc(=O)n3c2)CC1 [Compound 492, 7-(4-methyl-1,4-diazepan-1-yl)-2-(1-methyl-1H-indazol-5-yl)-4H-pyrido[1,2-a]pyrimidin-4-one] | ** (an EC1.5× between >1 μM and ≤3 μM is indicated by two stars (**)) | **** (a fold increase between >1.5 and ≤1.65 is indicated by four stars (****)) | 0.3 to 1 |
| Cc1cn2nc(-c3cc(=O)n4cc(C5CCNCC5)ncc4n3)cc2c(C)n1 [Compound 502, 2-(4,6-dimethylpyrazolo[1,5-a]pyrazin-2-yl)-7-(piperidin-4-yl)-4H-pyrazino[1,2-a]pyrimidin-4-one] | **** (an EC1.5x≤0.3 μM is indicated by four stars (****)) | ***** (a fold increase >1.65 is indicated by five stars (*****)) | < 0.1 |
| CCN1CCC(c2cn3c(=O)cc(-c4cc5c(C)nc(C)cn5n4)nc3cn2)CC1 [Compound 504, 2-(4,6-dimethylpyrazolo[1,5-a]pyrazin-2-yl)-7-(1-ethylpiperidin-4-yl)-4H-pyrazino[1,2-a]pyrimidin-4-one] | **** (an EC1.5x≤0.3 μM is indicated by four stars (****)) | ***** (a fold increase >1.65 is indicated by five stars (*****)) | < 0.1 |
| CCN1CC=C(c2cn3c(=O)cc(-c4ccc5c(cnn5C)c4)nc3cn2)CC1 [Compound 507, 7-(1-ethyl-1,2,3,6-tetrahydropyridin-4-yl)-2-(1-methyl-1H-indazol-5-yl)-4H-pyrazino[1,2-a]pyrimidin-4-one] | *** (an EC1.5× between >0.3 μM and ≤1 μM is indicated by three stars (***)) | **** (a fold increase between >1.5 and ≤1.65 is indicated by four stars (****)) | 0.1 to 0.3 |
| CCN1CCN(c2cc(C)c3nc(-c4cc5c(C)nc(C)cn5n4)cc(=O)n3c2)CC1 [Compound 508, 2-(4,6-dimethylpyrazolo[1,5-a]pyrazin-2-yl)-7-(4-ethylpiperazin-1-yl)-9-methyl-4H-pyrido[1,2-a]pyrimidin-4-one] | *** (an EC1.5× between >0.3 μM and ≤1 μM is indicated by three stars (***)) | **** (a fold increase between >1.5 and ≤1.65 is indicated by four stars (****)) | < 0.1 |
| Cc1cn2nc(-c3cc(=O)n4nc(C5CCNCC5)ccc4n3)cc2c(C)n1 [Compound 512, 2-(4,6-dimethylpyrazolo[1,5-a]pyrazin-2-yl)-7-(piperidin-4-yl)-4H-pyrimido[1,2-b]pyridazin-4-one] | **** (an EC1.5x≤0.3 μM is indicated by four stars (****)) | ***** (a fold increase >1.65 is indicated by five stars (*****)) | < 0.1 |
| Cc1cn2nc(-c3cc(=O)n4cc(N5CCCN(C)CC5)cc(C)c4n3)cc2c(C)n1 [Compound 520, 2-(4,6-dimethylpyrazolo[1,5-a]pyrazin-2-yl)-9-methyl-7-(4-methyl-1,4-diazepan-1-yl)-4H-pyrido[1,2-a]pyrimidin-4-one] | **** (an EC1.5x≤0.3 μM is indicated by four stars (****)) | **** (a fold increase between >1.5 and ≤1.65 is indicated by four stars (****)) | 0.1 to 0.3 |
| Cn1cc2cc(-c3cc(=O)n4nc(C5CCNCC5)ccc4n3)ccc2n1 [Compound 521, 2-(2-methyl-2H-indazol-5-yl)-7-(piperidin-4-yl)-4H-pyrimido[1,2-b]pyridazin-4-one] | **** (an EC1.5x≤0.3 μM is indicated by four stars (****)) | ***** (a fold increase >1.65 is indicated by five stars (*****)) | 0.1 to 0.3 |
| Cc1cn2nc(-c3cc(=O)n4cc(N5CCNC(C)(C)C5)cc(C)c4n3)cc2c(C)n1 [Compound 544, 7-(3,3-dimethylpiperazin-1-yl)-2-(4,6-dimethylpyrazolo[1,5-a]pyrazin-2-yl)-9-methyl-4H-pyrido[1,2-a]pyrimidin-4-one] | *** (an EC1.5× between >0.3 μM and ≤1 μM is indicated by three stars (***)) | **** (a fold increase between >1.5 and ≤1.65 is indicated by four stars (****)) | < 0.1 |
| Cc1cn2cc(-c3cc(=O)n4cc(C5CCNCC5)ncc4n3)ccc2n1 [Compound 585, 2-(2-methylimidazo[1,2-a]pyridin-6-yl)-7-(piperidin-4-yl)-4H-pyrazino[1,2-a]pyrimidin-4-one] | **** (an EC1.5x≤0.3 μM is indicated by four stars (****)) | ***** (a fold increase >1.65 is indicated by five stars (*****)) | < 0.1 |
| Cc1cn2cc(-c3cc(=O)n4cc(C5CCNCC5)ncc4n3)cc(Cl)c2n1 [Compound 587, 2-(8-chloro-2-methylimidazo[1,2-a]pyridin-6-yl)-7-(piperidin-4-yl)-4H-pyrazino[1,2-a]pyrimidin-4-one] | **** (an EC1.5x≤0.3 μM is indicated by four stars (****)) | **** (a fold increase between >1.5 and ≤1.65 is indicated by four stars (****)) | < 0.1 |
| Cc1cn2cc(-c3cc(=O)n4cc(C5CCNCC5)ncc4n3)cc(C)c2n1 [Compound 588, 2-(2,8-dimethylimidazo[1,2-a]pyridin-6-yl)-7-(piperidin-4-yl)-4H-pyrazino[1,2-a]pyrimidin-4-one] | **** (an EC1.5x≤0.3 μM is indicated by four stars (****)) | ***** (a fold increase >1.65 is indicated by five stars (*****)) | < 0.1 |
| CN1CCN(c2cn3c(=O)cc(-c4ccc5nn(C)cc5c4)nc3cn2)CC1 [Compound 589, 2-(2-methyl-2H-indazol-5-yl)-7-(4-methylpiperazin-1-yl)-4H-pyrazino[1,2-a]pyrimidin-4-one] | *** (an EC1.5× between >0.3 μM and ≤1 μM is indicated by three stars (***)) | **** (a fold increase between >1.5 and ≤1.65 is indicated by four stars (****)) | 0.1 to 0.3 |
| CC(C)N1CCC(c2ccc3nc(-c4ccc5nn(C)cc5c4)cc(=O)n3c2)CC1 [Compound 608, 2-(2-methyl-2H-indazol-5-yl)-7-[1-(propan-2-yl)piperidin-4-yl]-4H-pyrido[1,2-a]pyrimidin-4-one] | ** (an EC1.5× between >1 μM and ≤3 μM is indicated by two stars (**)) | **** (a fold increase between >1.5 and ≤1.65 is indicated by four stars (****)) | 0.1 to 0.3 |
| Cc1cn2cc(-c3cc(=O)n4cc(C5CCN(CCO)CC5)ccc4n3)cc(C)c2n1 [Compound 617, 2-(2,8-dimethylimidazo[1,2-a]pyridin-6-yl)-7-[1-(2-hydroxyethyl)piperidin-4-yl]-4H-pyrido[1,2-a]pyrimidin-4-one] | **** (an EC1.5x≤0.3 μM is indicated by four stars (****)) | ***** (a fold increase >1.65 is indicated by five stars (*****)) | < 0.1 |
| CCc1cc(-c2cc(=O)n3cc(N4CCN(C5CCC5)[C@@H](C)C4)ccc3n2)cn2cc(C)nc12 [Compound 652, 7-[(3S)-4-cyclobutyl-3-methylpiperazin-1-yl]-2-(8-ethyl-2-methylimidazo[1,2-a]pyridin-6-yl)-4H-pyrido[1,2-a]pyrimidin-4-one] | **** (an EC1.5x≤0.3 μM is indicated by four stars (****)) | ***** (a fold increase >1.65 is indicated by five stars (*****)) | < 0.1 |
| CCc1nc(C)cn2nc(-c3cc(=O)n4cc(C5CCNCC5)ncc4n3)cc12 [Compound 653, 2-(4-ethyl-6-methylpyrazolo[1,5-a]pyrazin-2-yl)-7-(piperidin-4-yl)-4H-pyrazino[1,2-a]pyrimidin-4-one] | **** (an EC1.5x≤0.3 μM is indicated by four stars (****)) | ***** (a fold increase >1.65 is indicated by five stars (*****)) | < 0.1 |
| Cc1cn2nc(-c3cc(=O)n4cc(N5CCN(CCOCCO)[C@H](C)C5)cc(C)c4n3)cc2c(C)n1 [Compound 670, 2-(4,6-dimethylpyrazolo[1,5-a]pyrazin-2-yl)-7-{(3R)-4-[2-(2-hydroxyethoxy)ethyl]-3-methylpiperazin-1-yl}-9-methyl-4H-pyrido[1,2-a]pyrimidin-4-one] | **** (an EC1.5x≤0.3 μM is indicated by four stars (****)) | ***** (a fold increase >1.65 is indicated by five stars (*****)) | < 0.1 |
| Cc1cn2nc(-c3cc(=O)n4cc(C5CCN(C)CC5)cc(C)c4n3)cc2c(C)n1 [Compound 672, 2-(4,6-dimethylpyrazolo[1,5-a]pyrazin-2-yl)-9-methyl-7-(1-methylpiperidin-4-yl)-4H-pyrido[1,2-a]pyrimidin-4-one] | **** (an EC1.5x≤0.3 μM is indicated by four stars (****)) | ***** (a fold increase >1.65 is indicated by five stars (*****)) | < 0.1 |
